Test results: patent publication US20040120954A1, “Regulation of mt1-mmp activity” (priority 2000, published 2004)

Columns and labels:
[1] = molecular target: T1, MT1-F (Homo sapiens, UniProt P50281); experiment: Co-immunoprecipitation with MT1-F using anti-FLAG M2 beads (COS1 cells); format: binding; conditions: co-expressed in COS1 cells (FIG. 18)
T1 construct: expressed in transfected cells
Description: Transfected COS1 cells were lysed in a RIPA buffer (50 mM Tris-HCl, pH 7.5; 150 mM NaCl; 1% Triton-X100; 1% sodium deoxycolate; 0.1% SDS; 1 mM EDTA; 1 mM PMSF; 10 μM E-64; 0.02% NaN3) at room temperature for 1 hr. Cell lysates were centrifuged at 15,000 rpm in Eppendorf tubes, and the supernatant was reacted with anti-FLAG M2 antibody-conjugated beads (Sigma) at 4° C. for 1 hr. The beads were washed three times with a RIPA buffer and once with Tris-buffered saline (pH 7.5) (TBS). Bound proteins were eluted by the FLAG peptide ([…] 200 μg/ml) (Sigma) in TBS, and subjected to Western blot analysis using a monoclonal mouse anti-FLAG epitope M2 antibody (Sigma), a monoclonal mouse anti-c-Myc antibody (Ab-1) (Oncogene, MA, USA; 1 μg/ml), a rabbit anti-(human MT1Cat) antibody (1:2000), or a monoclonal mouse anti-human MT1PEX antibody (222-1D8) (0.5 μg/ml).
The activation of proMMP-2 by MT1-MMP on the cell surface requires the ternary complex formation of proMMP-2, TIMP-2 and MT1-MMP, and also the presence of TIMP-2-free MT1-MMP near the ternary complex. If TIMP-2-free MT1-MMP and the ternary complex are far apart, the activation should not occur. We thus hypothesized that MT1-MMP would form a homophilic complex on the cell surface to arrange the effective activation complex for MMP-2. […]

[2] = test system: MT1-MMP; experiment: Activation of proMMP-2 by MT1-MMP on the cell surface of transfected cells (gelatin zymography); format: cell-based, human; conditions: transfected COS1 cells, exogenous purified proMMP-2 (FIGS. 2, 20)
Description: Gelatin zymography was conducted using an SDS-polyacrylamide gel (PAGE) containing gelatin (0.8 mg/ml) (Itoh, Y. et al., J. Biol. Chem., 273: 24360-24367, 1998). The samples were mixed with a SDS-PAGE loading buffer without a reducing agent and subjected to electrophoretic analysis at room temperature. Enzyme activity was visualized as a negative staining area with Coomassie Brilliant Blue R-250.
The expression construct for FLAG epitope ([…]-tagged MT1-MMP (MT1-F) described in Itoh, Y. et al., J. Biol. Chem., 274: 34260-34266, 1999 was used as a template to generate cDNA for MT1Cat-F (A Ile^318-Gly^535) by the PCR extension method of Ho et al., (Ho, S. N. et al., Gene, 77: 51-59, 1989). The cDNA was subcloned into pSG5 (Stratagene, CA, USA). The PCR-generated fragments were confirmed by DNA sequencing. COS1 cells were transfected with the expression vector for MT1-MMP mutant; MT1-F or MT1Cat-F, or a vector alone (Mock). Expression vectors for each protein were transfected using FuGENE6™ (Roche Molecular Biochemicals) according to the manufacturer's instructions. COS1 cells were seeded in 6-well plates at 1.5×10^5/well at 16 hrs before the transfection was performed. The COS1 cells were maintained in a HAM F-12 medium or DMEM containing 10% fetal bovine serum in a humidified incubator at 37° C. At 48 hrs after the transfection, the cells were collected for use in the experiments. The cells were incubated in the presence of purified proMMP-2 in a serum-free medium (0.25 μg/ml) at 37° C. for 18 hrs. Cell lysates were tested for the expression of the mutants, while culture supernatants were tested for the activation of proMMP-2.
To investigate roles of dimer formation upon the activation of proMMP-2, MT1-F was introduced into COS1 cells together with MT1PEX-F. The co-introduced cells were reacted with exogenously added proMMP-2. Thus, COS1 cells were co-transfected with the MT1-F and MT1PEX-F at indicated DNA amount ratios. Next, purified proMMP-2 (0.25 μg/ml) in a serum-free medium was reacted with the resulting cells at 37° C. for 18 hrs. MMP-2 in the culture supernatant was analyzed by gelatin zymography, and the cell lysates were subjected to Western blotting analysis using a monoclonal anti-FLAG M2 antibody.
(§1) Next, to determine if MT1PEX-F affects the catalytic activity of MT1-MMP on the cell surface or not, tests for gelatin degrading activity and binding capacity to TIMP-2 were conducted using cells transfected in the same incubator. As shown in FIGS. 12 through 14, CHO-K1 cells were transfected with an expression vector for MT1-F, MT1-F/MT1PEX-F or MT1Cat-F, or a vector alone (Mock). The cells were then treated with trypsin, and separately seeded to: DQ™ gelatin-coated cover slips for testing the proteolytic activity (FIG. 13); and 24-well plates for TIMP-2 binding assay (FIG. 12) and for the activation of proMMP-2 (FIG. 14). Transfected cells on the DQ™ gelatin-coated cover slip as shown in FIG. 13 were incubated in a medium at 37° C. for 18 hrs, and the generated fluorescence was analyzed using confocal microscopy. Transfected cells on the 24-well plate as shown in FIG. 12 were incubated with 25 nM ^125I-labeled TIMP-2 in the presence or absence of BB-94 (50 μM) at 0° C. for 1 hr. MT1-MMP specific binding was calculated by subtracting the datum obtained in the presence of BB-94 (50 μM) from each datum derived from the corresponding experiments. […] DQ™ gelatin is a fluorescence-quenched gelatin, which fluoresces upon proteolytic cleavage. […]

[3] = test system: MT1-MMP; experiment: In situ gelatin degrading assay (DQ gelatin or Alexa488-conjugated gelatin); format: cell-based, human; conditions: DQ gelatin; CHO-K1 (FIG. 13) or COS1 cells (FIG. 22)
Description: Two different in situ gelatin degrading assays were performed. One used DQ™ gelatin (Molecular Probes, Inc., OR, USA). DQ gelatin is a fluorescence-quenched gelatin substrate, and will fluoresce upon proteolytic cleavage. Glass cover slips were coated with 5% DQ™ gelatin in a 10 mg/ml unlabeled gelatin solution, and dried. Transfected cells were cultured on the cover slip in a humidified chamber for 16 hrs. The cells were then fixed with 3% para-formaldehyde and the degraded areas were visualized as those showing fluorescence.
The other assay used Alexa488-conjugated gelatin made with an Alexa488-labeling kit (Molecular Probes). The bottom surfaces of 4-well chamber slides (Nunc) were coated with Alexa488-conjugated gelatin according to the method of Yana, I. and Weiss, S. J., Mol. Biol. Cell, 11, 2387-2401, 2000. Transfected COS1 cells were cultured in the chamber slides for 16 hrs in a humidified culture incubator. The cells were then fixed with 3% para-formaldehyde in PBS, and the degraded area was analyzed under a fluorescence microscope. The degraded area was visualized as a dark, non-fluorescent area. Fluorescence images were analyzed using confocal microscopy (BioRad).
as §1, with “experiments. Identically transfected cells on the 24-well plate as shown in FIG. 14 were subjected to the reaction with purified proMMP-2 in a serum-free medium at 37° C. for 18 hrs. The cells and culture supernatants were respectively subjected to Western blotting analysis using a monoclonal anti-FLAG M2 antibody, and gelatin zymography analysis.” for “experiments.”

MT1Cat: MT1-MMP lacking the PEX domain (untagged)
co-immunoprecipitation with MT1-F [1]: not MT1Cat was co-immunoprecipitated with MT1-F | activation of proMMP-2 by cells expressing the mutant [2]: cannot activate proMMP-2 | gelatin degrading (proteolytic) activity of cells expressing the mutant [3]: retains its proteolytic activity
